In PubChem BioAssay AID2060336 (Molecular Pharmacology Branch, DTP, NCI, 2025):

Test system: 958767-090-R-J1-PDC spheroid growth
Assay: Anticancer human tumor 958767-090-R-J1-PDC patient-derived head and neck squamous carcinoma cell line growth inhibition [IpAb]
Conditions: spheroids with HUVEC and MSC; for IC50: curve of first compound; for viability, T/C: stronger effect = lower value
Method in brief: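 Combinations with ipatasertib or abemaciclib were tested on tumour spheroids holding HUVEC (25%) and MSC (15%) alongside 60% malignant cells. Top concentration was at or near clinical Cmax (10 microM if undefined), descending in half-log steps.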

[1] = second compound 0.1 µM, first compound 0.0316 µM
[2] = second compound 0.1 µM, first compound 0.1 µM
[3] = second compound 0.1 µM, first compound 0.316 µM
[4] = second compound 0.1 µM, first compound 1 µM
[5] = second compound 0.1 µM, first compound 3.16 µM
[6] = second compound 0.1 µM, first compound 10 µM
[7] = second compound 0.316 µM, first compound 0.0316 µM
[8] = second compound 0.316 µM, first compound 0.1 µM
[9] = second compound 0.316 µM, first compound 0.316 µM
[10] = second compound 0.316 µM, first compound 1 µM
[11] = second compound 0.316 µM, first compound 3.16 µM
[12] = second compound 0.316 µM, first compound 10 µM
[13] = second compound 1 µM, first compound 0.0316 µM
[14] = second compound 1 µM, first compound 0.1 µM
[15] = second compound 1 µM, first compound 0.316 µM
[16] = second compound 1 µM, first compound 1 µM
[17] = second compound 1 µM, first compound 3.16 µM
[18] = second compound 1 µM, first compound 10 µM
[19] = second compound 3.16 µM, first compound 0.0316 µM
[20] = second compound 3.16 µM, first compound 0.1 µM
[21] = second compound 10 µM, first compound 0.0316 µM
[22] = second compound 10 µM, first compound 0.1 µM
[23] = second compound 0.01 µM, first compound 0.0316 µM
[24] = second compound 0.01 µM, first compound 0.1 µM
[25] = second compound 0.01 µM, first compound 0.316 µM
[26] = second compound 0.01 µM, first compound 1 µM
[27] = second compound 0.01 µM, first compound 3.16 µM
[28] = second compound 0.01 µM, first compound 10 µM
[29] = second compound 0.0316 µM, first compound 0.0316 µM
[30] = second compound 0.0316 µM, first compound 0.1 µM
[31] = second compound 0.0316 µM, first compound 0.316 µM
[32] = second compound 0.0316 µM, first compound 1 µM
[33] = second compound 0.0316 µM, first compound 3.16 µM
[34] = second compound 0.0316 µM, first compound 10 µM
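Note: spheroids exposed to agents for 7 days.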
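Throughout, for viability, T/C: 100% = DMSO vehicle control wells.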

What does the source list for `Cn1nccc1Nc1nccc(-c2ccn(C(CO)c3ccc(Cl)c(F)c3)c(=O)c2)n1` (stereo not given) + CC(C)NCC(C(=O)N1CCN(c2ncnc3c2C(C)CC3O)CC1)c1ccc(Cl)cc1?
IC50 (second compound 0.1 µM): 495 nM; IC50 (second compound 0.316 µM): 137 nM; IC50 (second compound 1 µM): 64 nM; IC50 (second compound 3.16 µM): 38.5 nM; IC50 (second compound 10 µM): < 31.6 nM; viability, T/C [1]: 86.8%; viability, T/C [2]: 65.5%; viability, T/C [3]: 56.1%; viability, T/C [4]: 43.7%; viability, T/C [5]: 28.2%; viability, T/C [6]: 13.4%; viability, T/C [7]: 66.5%; viability, T/C [8]: 46.4%; viability, T/C [9]: 44.6%; viability, T/C [10]: 32.8%; viability, T/C [11]: 17.7%; viability, T/C [12]: 5.2%; viability, T/C [13]: 54.1%; viability, T/C [14]: 47.9%; viability, T/C [15]: 36.1%; viability, T/C [16]: 23.1%; viability, T/C [17]: 13.2%; viability, T/C [18]: 3.79%; viability, T/C [19]: 53.6%; viability, T/C [20]: 37.1%; viability, T/C (second compound 3.16 µM, first compound 0.316 µM): 27.8%; viability, T/C (second compound 3.16 µM, first compound 1 µM): 19.4%; viability, T/C (second compound 3.16 µM, first compound 3.16 µM): 10.4%; viability, T/C (second compound 3.16 µM, first compound 10 µM): 4.11%; viability, T/C [21]: 44.7%; viability, T/C [22]: 35%; viability, T/C (second compound 10 µM, first compound 0.316 µM): 24.1%; viability, T/C (second compound 10 µM, first compound 1 µM): 15.2%; viability, T/C (second compound 10 µM, first compound 3.16 µM): 8.11%; viability, T/C (second compound 10 µM, first compound 10 µM): 3.09%

Which results are given for `C=CCn1c(=O)c2cnc(Nc3ccc(N4CCN(C)CC4)cc3)nc2n1-c1cccc(C(C)(C)O)n1` + CCN1CCN(Cc2ccc(Nc3ncc(F)c(-c4cc(F)c5nc(C)n(C(C)C)c5c4)n3)nc2)CC1?
IC50 (second compound 0.01 µM): 237 nM; IC50 (second compound 0.0316 µM): 250 nM; IC50 (second compound 0.1 µM): 338 nM; IC50 (second compound 0.316 µM): 203 nM; IC50 (second compound 1 µM): 994 nM; viability, T/C [23]: 83.8%; viability, T/C [24]: 69.3%; viability, T/C [25]: 43%; viability, T/C [26]: 29%; viability, T/C [27]: 26.7%; viability, T/C [28]: 21.3%; viability, T/C [29]: 79.6%; viability, T/C [30]: 67.3%; viability, T/C [31]: 42.9%; viability, T/C [32]: 34.7%; viability, T/C [33]: 25%; viability, T/C [34]: 21.5%; viability, T/C [1]: 65.6%; viability, T/C [2]: 64%; viability, T/C [3]: 47.1%; viability, T/C [4]: 40.1%; viability, T/C [5]: 31.9%; viability, T/C [6]: 19.7%; viability, T/C [7]: 65%; viability, T/C [8]: 47.1%; viability, T/C [9]: 44.1%; viability, T/C [10]: 46.7%; viability, T/C [11]: 33.2%; viability, T/C [12]: 21.5%; viability, T/C [13]: 77.3%; viability, T/C [14]: 68.2%; viability, T/C [15]: 52.3%; viability, T/C [16]: 55%; viability, T/C [17]: 42.8%; viability, T/C [18]: 34.3%

How did the IC50 (second compound 0.1 µM) turn out when `Cn1ncnc1[C@H]1c2n[nH]c(=O)c3cc(F)cc(c23)N[C@@H]1c1ccc(F)cc1` + CC(C)NCC(C(=O)N1CCN(c2ncnc3c2C(C)CC3O)CC1)c1ccc(Cl)cc1 was run?
Its IC50 is over 100 nM.

What about the IC50 (second compound 0.316 µM) of the same molecule?
Its IC50 is over 100 nM.

And the IC50 (second compound 1 µM)?
Its IC50 is over 100 nM.

What about the IC50 (second compound 3.16 µM) of the same molecule?
The IC50 was over 100 nM.

What about the IC50 (second compound 10 µM) of the same molecule?
Its IC50 is 51.3 nM.

And the viability, T/C (second compound 0.1 µM, first compound 0.000316 µM)?
Its viability, T/C is 91.5%.

And the viability, T/C (second compound 0.1 µM, first compound 0.001 µM)?
The viability, T/C was 87.8%.

And the viability, T/C (second compound 0.1 µM, first compound 0.00316 µM)?
Its viability, T/C is 91.2%.

What about the viability, T/C (second compound 0.1 µM, first compound 0.01 µM) of the same molecule?
The viability, T/C was 83.7%.

And the viability, T/C [1]?
Its viability, T/C is 87.4%.

What about the viability, T/C [2] of the same molecule?
The viability, T/C was 73%.

What about the viability, T/C (second compound 0.316 µM, first compound 0.000316 µM) of the same molecule?
Its viability, T/C is 70%.

And the viability, T/C (second compound 0.316 µM, first compound 0.001 µM)?
The viability, T/C was 77.4%.

And the viability, T/C (second compound 0.316 µM, first compound 0.00316 µM)?
Its viability, T/C is 74.7%.

What about the viability, T/C (second compound 0.316 µM, first compound 0.01 µM) of the same molecule?
Its viability, T/C is 86.8%.

And the viability, T/C [7]?
The viability, T/C was 77.6%.

What about the viability, T/C [8] of the same molecule?
The viability, T/C was 65.8%.

What about the viability, T/C (second compound 1 µM, first compound 0.000316 µM) of the same molecule?
The viability, T/C was 69.5%.

What about the viability, T/C (second compound 1 µM, first compound 0.001 µM) of the same molecule?
Its viability, T/C is 63.9%.

And the viability, T/C (second compound 1 µM, first compound 0.00316 µM)?
The viability, T/C was 72.2%.

What about the viability, T/C (second compound 1 µM, first compound 0.01 µM) of the same molecule?
The viability, T/C was 74.2%.

And the viability, T/C [13]?
Its viability, T/C is 62.4%.

What about the viability, T/C [14] of the same molecule?
Its viability, T/C is 56.4%.

What about the viability, T/C (second compound 3.16 µM, first compound 0.000316 µM) of the same molecule?
Its viability, T/C is 65%.

And the viability, T/C (second compound 3.16 µM, first compound 0.001 µM)?
Its viability, T/C is 52.6%.

What about the viability, T/C (second compound 3.16 µM, first compound 0.00316 µM) of the same molecule?
Its viability, T/C is 58.8%.

What about the viability, T/C (second compound 3.16 µM, first compound 0.01 µM) of the same molecule?
Its viability, T/C is 70.2%.

What about the viability, T/C [19] of the same molecule?
Its viability, T/C is 62.4%.

What about the viability, T/C [20] of the same molecule?
The viability, T/C was 59.3%.

And the viability, T/C (second compound 10 µM, first compound 0.000316 µM)?
The viability, T/C was 63.3%.

And the viability, T/C (second compound 10 µM, first compound 0.001 µM)?
Its viability, T/C is 55.3%.

What about the viability, T/C (second compound 10 µM, first compound 0.00316 µM) of the same molecule?
The viability, T/C was 58.1%.

What about the viability, T/C (second compound 10 µM, first compound 0.01 µM) of the same molecule?
Its viability, T/C is 58.4%.

What about the viability, T/C [21] of the same molecule?
Its viability, T/C is 56%.

And the viability, T/C [22]?
The viability, T/C was 42%.

With `Cn1ncc(Cl)c1-c1cc(C(=O)NC(CN)Cc2cccc(F)c2)sc1Cl` (stereo not given) + CCN1CCN(Cc2ccc(Nc3ncc(F)c(-c4cc(F)c5nc(C)n(C(C)C)c5c4)n3)nc2)CC1 as the molecule, how does the IC50 (second compound 0.01 µM) read?
The IC50 was 786 nM.

What about the IC50 (second compound 0.0316 µM) of the same molecule?
The IC50 was 647 nM.

What about the IC50 (second compound 0.1 µM) of the same molecule?
The IC50 was 614 nM.

And the IC50 (second compound 0.316 µM)?
The IC50 was 1080 nM.

What about the IC50 (second compound 1 µM) of the same molecule?
The IC50 was 818 nM.

What about the viability, T/C [23] of the same molecule?
The viability, T/C was 89.7%.

What about the viability, T/C [24] of the same molecule?
The viability, T/C was 76.1%.

And the viability, T/C [25]?
The viability, T/C was 58.8%.

What about the viability, T/C [26] of the same molecule?
Its viability, T/C is 45.4%.

What about the viability, T/C [27] of the same molecule?
Its viability, T/C is 33.5%.

And the viability, T/C [28]?
Its viability, T/C is 0.14%.

And the viability, T/C [29]?
Its viability, T/C is 75.1%.

And the viability, T/C [30]?
The viability, T/C was 74.5%.

What about the viability, T/C [31] of the same molecule?
Its viability, T/C is 62.6%.

What about the viability, T/C [32] of the same molecule?
Its viability, T/C is 38.3%.

What about the viability, T/C [33] of the same molecule?
The viability, T/C was 25.5%.

What about the viability, T/C [34] of the same molecule?
The viability, T/C was 0.15%.

What about the viability, T/C [1] of the same molecule?
Its viability, T/C is 73.2%.

And the viability, T/C [2]?
Its viability, T/C is 65.9%.

What about the viability, T/C [3] of the same molecule?
The viability, T/C was 51.5%.

And the viability, T/C [4]?
Its viability, T/C is 46.1%.

And the viability, T/C [5]?
Its viability, T/C is 30.3%.

What about the viability, T/C [6] of the same molecule?
Its viability, T/C is 0.18%.

And the viability, T/C [7]?
Its viability, T/C is 62.7%.

And the viability, T/C [8]?
The viability, T/C was 46.6%.

And the viability, T/C [9]?
The viability, T/C was 47.1%.

What about the viability, T/C [10] of the same molecule?
Its viability, T/C is 52.5%.

And the viability, T/C [11]?
Its viability, T/C is 19.7%.

What about the viability, T/C [12] of the same molecule?
The viability, T/C was 0.17%.

What about the viability, T/C [13] of the same molecule?
Its viability, T/C is 83.7%.

And the viability, T/C [14]?
The viability, T/C was 63.3%.

And the viability, T/C [15]?
The viability, T/C was 62.3%.

What about the viability, T/C [16] of the same molecule?
The viability, T/C was 50.9%.

What about the viability, T/C [17] of the same molecule?
Its viability, T/C is 27.9%.

And the viability, T/C [18]?
The viability, T/C was 1.92%.
